One series deals with ileum of a guinea pig (Cavia porcellus, UniProt P31389). The experiment in a line: cell-based. As to conditions: histamine-induced retraction of guinea pig ileum, test compound 10^-6 g/ml, 36° C., Van Rossam method; for Kb: read-out: pA2 (converted). Here is the method:
Pharmacological tests of the present compounds were conducted according to said method as follows:
A male guinea pig having 300 to 500 g body weight is killed by blood letting. An ileum having length of 15 cm being enucleated from the ileocecal region is dipped into Tyrode's solution (which is prepared from 8.0 g of NaCl, 0.2 g of KCl, 0.2 g of CaCl2, 1.0 g of glucose, 1.0 g of NaHCO3, 0.065 g of NaHPO4.2H2 O and 0.2135 g of MgCl2.6H2 O to make 1000 ml in total volume by adding water). Then the tissue of ileum is cut to a length of 2.5 to 3.0 cm and suspended in an organ bath filled with 30 ml of Tyrode's solution. The organ bath is kept a temperature of 36° C. while blowing a mixed gas consisting of 5% of CO2 and 95% of O2 into the bath. 10 Minutes after the blowing, 10^-6 M of histamine is added to the bath to examine the sensitivity of the tissue and a reaction curve (control) with respect to the dosage of histamine is obtained. After the dosage of histamine-reaction curve (control) become constant 10^-6 g/ml of a compound to be tested is added to the bath and further histamine is added 5 minutes later to obtain dosage-reaction curve. Retraction of the ileum is recorded on a pen-recorder through an isotonic transducer (TD-112S manufactured by Nihon Koden).

The next series can be described thus: Acute toxicity test. To be noted: rat, in vivo; oral, male rats. From the text:
Each of the compounds of the present invention was orally administered to male rats to determine the acute toxicity.

In another series the test system is Male mice of ddy-strain. The experiment in a line: Halothane anesthesia increasing activity. In kind it is in vivo, mouse. As to conditions: oral, 32 mg/kg, 1 hour before 4% Halothane for 3 minutes, male ddy mice; saline control 4.2. As to the method:
Male mice of ddy-strain having about 20 g body weight were used. One test group consists of 10 mice. An aqueous Gummi Arabicum suspension of test compound (80 mg of a compound to be tested and 1 g of Gummi Arabicum/100 ml of physiological NaCl solution) was administered orally to each mouse at the dosage of 32 mg of test compound/kg body. One hour after the administration, each mouse was placed in gas respiration chamber (13×13×24 cm) and oxygen gas containing 4% of Halothane [2-bromo-2-chloro-1,1,1-trifluoroethane] was blown into the chamber at the velocity of 2 l/min for 3 minutes. A mouse anaesthetized was taken out from the chamber and the time between the introduction of anesthesia to waking was measured by righting reflex as the index. To mice of control group, 1% Gummi Arabicum aqueous physiological solution was orally administered at the dosage of 0.1 ml/kg body. (Reference: M. J. Turnbull and J. W. Watkins: Br. J. Pharmacol., 58, 27-35 (1976))

Series [1] concerns conjunctiva of the animal. The experiment in a line: Local anesthesia activity test. In kind it is in vivo, guinea pig. To be noted: 0.1% solution, 3 drops on conjunctiva, 60 stimulations in 30 minutes, four guinea pigs; saline control 0. Here is the method:
Guinea pig having about 300 to 350 g of body weight were used as the test animals. Three (3) drops of 0.1%-test compound dissolved in physiological saline solution were administered through 1/4-sized injection needle on the surface of conjuctiva of the test animal. After the administration of the test solution, the conjunctiva of the animal was stimulated ten times in every 5 minutes by a stylet (mandrine) or 1/4-sized injection needle, the stimulations were repeated 6 times within 30 minutes, thus 60 stimulations were given to the conjunctiva of the animal. The number of disappearing of eye-closing-reflexes, during 30 minutes after the administration of the test solution was counted as to the effectiveness of the local anesthesia activity. In this test, four (4) guinea pigs were used as one test group, and the test solution containing 0.1% of the test compound was applied to one test group, and physiological saline solution was, on the other hand, applied to another test group of the guinea pigs as the control.

Structures are written as SMILES.

The results in this text go back to patent publication US4482560A, “Carbostyril derivatives, and antihistaminic agents containing the same” (priority 1979, dated 1984).

ileum of a guinea pig, sequence (P31389 whole entry): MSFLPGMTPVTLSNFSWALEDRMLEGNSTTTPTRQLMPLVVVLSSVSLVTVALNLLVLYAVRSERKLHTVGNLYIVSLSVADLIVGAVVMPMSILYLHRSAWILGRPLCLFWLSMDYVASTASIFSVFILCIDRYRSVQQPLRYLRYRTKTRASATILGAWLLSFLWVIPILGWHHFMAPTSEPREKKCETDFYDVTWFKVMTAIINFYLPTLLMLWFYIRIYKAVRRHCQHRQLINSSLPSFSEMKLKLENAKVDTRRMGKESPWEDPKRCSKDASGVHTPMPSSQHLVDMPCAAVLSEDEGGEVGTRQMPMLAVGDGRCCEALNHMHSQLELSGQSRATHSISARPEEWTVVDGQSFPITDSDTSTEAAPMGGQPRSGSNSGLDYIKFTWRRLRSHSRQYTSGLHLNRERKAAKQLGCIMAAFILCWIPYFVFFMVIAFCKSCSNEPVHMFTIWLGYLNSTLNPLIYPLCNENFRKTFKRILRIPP

Take `CN1C(=O)CCc2c(OCC(O)CN3CCC(Cc4ccccc4)CC3)cccc21.O=C(O)C(=O)O` (stereo not shown) [Compound 10, 1-Methyl-5-[2-hydroxy-3-(4-benzyl-1-piperidyl)-propoxy]-3,4-dihydrocarbostyril monooxalate]: the Kb on ileum of a guinea pig is 0.24 nM. In the series “Acute toxicity test”, the LD50 (commonly the dose at which mortality reaches 50%) was greater than 1000 mg/kg. In the series with Male mice of ddy-strain, the “Time (minutes) between introduction of anesthesia and waking (righting reflex)” value (“Time (minutes) between introduction” below) came to 4.8 min. Moreover, the “Number of eye-closing reflex (number of disappearing of eye-closing-reflexes during 30 minutes)” value (“Number of eye-closing reflex” for short) in series [1] is reported as 37.3.

For the molecule `Cc1cc(=O)[nH]c2cc(OCCCN3CCN(Cc4ccccc4)CC3)ccc12` [E, 4-Methyl-7-[3-(4-benzyl-piperazin-1-yl)-propoxy]-2-oxo-1,2-dihydroquinoline, reference compound], the “Number of eye-closing reflex” value in series [1] is on record as 5.2.

For the molecule `O=C1CCc2ccc(OCC(O)CN3CCC(c4ccccc4)CC3)cc2N1` (stereo not shown) [Compound 9, 7-[2-Hydroxy-3-(4-phenyl-1-piperidyl)propoxy]-3,4-dihydrocarbostyril], on ileum of a guinea pig, the Kb is 0.129 nM. In addition, the LD50 in the series “Acute toxicity test” is greater than 1000 mg/kg. Further, in the series with Male mice of ddy-strain, the “Time (minutes) between introduction” value came out at 4.1 min. For the same molecule, the “Number of eye-closing reflex” value in series [1] is recorded as 29.2.

Turning to `CN1C(=O)CCc2ccc(OCCCN3CCC(Cc4ccccc4)CC3)cc21.O=C(O)C(=O)O` [Compound 2, 1-Methyl-7-[3-(4-benzyl-1-piperidyl)propoxy]-3,4-dihydrocarbostyril monooxalate], at ileum of a guinea pig, the Kb was 0.02 nM. The LD50 in the series “Acute toxicity test” was greater than 1000 mg/kg. For the same molecule, in the series with Male mice of ddy-strain, the “Time (minutes) between introduction” value stood at 4.9 min. In addition, the “Number of eye-closing reflex” value in series [1] is on record as 58.0.

For `C[N+]1(CC(O)COc2cccc3c2CCC(=O)N3)CCC(c2ccccc2)CC1` (stereo not shown) [Compound 11, 4-Phenyl-1-[2-hydroxy-3-(2-oxo-1,2,3,4-tetra-hydroquinolin-5-yloxy)propyl]-1-methyl-piperidium iodide], the Kb on ileum of a guinea pig is 5.89 nM. This molecule yielded a 50% lethal dose (LD50) in the series “Acute toxicity test” greater than 1000 mg/kg. In the series with Male mice of ddy-strain, the “Time (minutes) between introduction” value was determined as 5.2 min. Also, the “Number of eye-closing reflex” value in series [1] is 27.6.

For the molecule `Cc1cc(=O)n(C)c2ccc(OCCCN3CCN(Cc4ccc(Cl)cc4)CC3)cc12` [D, reference compound], the “Number of eye-closing reflex” value in series [1] amounted to 3.8.

Regarding `Cc1cc(=O)n(C)c2cc(OCCCN3CCN(Cc4ccc(Cl)cc4)CC3)ccc12` [C, 1,4-Dimethyl-7-{3-[4-(4-chlorobenzyl)-1-piperazin-1-yl]propoxy}-2-oxo-1,2-dihydroquinoline, reference compound], the “Number of eye-closing reflex” value in series [1] came out at 2.8.

On to `O=c1cc(-c2ccccc2)c2ccc(OCCCN3CCC(c4ccccc4)CC3)cc2[nH]1` [Compound 13, 4-Phenyl-7-[3-(4-phenyl-1-piperidyl)propoxy]-carbostyril monohydrochoride], for which the Kb at ileum of a guinea pig is 0.186 nM. For the same molecule, in the series “Acute toxicity test”, the LD50 is greater than 1000 mg/kg. Moreover, the “Time (minutes) between introduction” value with Male mice of ddy-strain came out at 5.6 min. Also, in series [1], the “Number of eye-closing reflex” value amounted to 28.0.

In the case of `CC(=O)C1(c2ccccc2)CCN(CCCOc2ccc3c(c2)NC(=O)CC3)CC1` [Compound 15, 7-{3-[4-(4-Acetyl-4-phenyl)-1-piperidyl]}-3,4-dihydrocarbostyril], at ileum of a guinea pig, the pA2 (in general, a measure of antagonist potency on a negative log scale) came out at 9.92. Moreover, the median lethal dose (LD50) in the series “Acute toxicity test” was greater than 1000 mg/kg. Also, the “Time (minutes) between introduction” value in the series on Male mice of ddy-strain was found to be 4.7 min. Moreover, the “Number of eye-closing reflex” value in series [1] was 35.5.

Take `O=C1CCc2c(cccc2OCCCN2CCC(Cc3ccccc3)CC2)N1` [Compound 1, 5-[3-(4-Benzyl-1-piperidyl)propoxy]-3,4-dihydrocarbostyril]: at ileum of a guinea pig, the Kb is 0.302 nM. Moreover, the median lethal dose (LD50) in the series “Acute toxicity test” was greater than 1000 mg/kg. For the same molecule, in the series with Male mice of ddy-strain, the “Time (minutes) between introduction” value was determined as 4.7 min. Also, in series [1], the “Number of eye-closing reflex” value was found to be 55.1.
